# Assay results reported in patent US7488822B2 (Wyeth, priority 1999, dated 2009).
# pIC50: −log10 of the molar value. Values joined by “and” are separate entries in the source; they are usually repeats but may differ in a detail not shown here. Equal values may be shown once.
# Columns and labels:
# [1] = tested on: rat uterine decidualization; assay: Rat decidualization assay; format: in vivo; details: for Estimated average EC50 (mg/kg, s.c.): average for dose-response curves; for Estimated EC50 (mg/kg, s.c.): uterine wet weight; for Decidualization IC50: decrease in EC50 progesterone induced decidual response
# Procedure: The animals are treated once daily for seven days. […] Uteri are removed and trimmed of fat.
# Body weight: Mean total animal body weight (default-kg)
# Decidual response: [(D-C)/C]×100%
# T47D cells = assay: T47D cell proliferation assay (BrdU incorporation); format: cell-based; details: half-maximal decrease in trimegestone induced BrdU incorporation, individual studies, read-out: Estimated IC50
# Procedure: T47D cell proliferation assay • The objective of this assay is the determination of progestational and antiprogestational potency by using a cell proliferation assay in T47D cells. A compound's effect on DNA synthesis in T47D cells is measured. […] Growth medium: DMEM:F12 (1:1) (GIBCO, BRL) supplemented with 10% (v/v) fetal bovine serum (not heat-inactivated), 100 U/ml penicillin, […], and 2 mM GlutaMax (GIBCO, BRL). • b. Treatment medium: Minimum Essential Medium (MEM) (#51200-038GIBCO, BRL) phenol red-free supplemented with 0.5% charcoal stripped fetal bovine serum, 100 U/ml penicillin, […] streptomycin, and 2 mM GlutaMax (GIBCO, BRL). • c. Cell Culture • Stock T47 D cells are maintained in growth medium. For BrdU incorporation assay, cells are plated in 96-well plates (Falcon, Becton Dickinson Labware) at 10,000 cells/well in growth medium. […] Cell Proliferation Assay • At the end of BrdU labeling, the medium is removed and BrdU incorporation is measured using a cell proliferation ELISA kit (#RPN 250, Amersham Life Science) according to manufacturer's instructions. […] Then 25 μl of 1 M sulfuric acid is added to each well to stop color reaction and optical density is read in a plate reader at 450 nm within 5 min. • e. […] EC50 or IC50 values are calculated from the retransformed values. […]
smiles,measurement,setting,value
C#C[C@]1(O)CC[C@H]2[C@@H]3CCC4=CC(=O)CC[C@@H]4[C@H]3C(=C)C[C@@]21CC [3-Ketodesogestrel],"Estimated average EC50 (mg/kg, s.c.)",[1],0.10 mg/kg
same,"Estimated EC50 (mg/kg, s.c.)",[1]; individual studies,0.10 mg/kg and 0.06 mg/kg and 0.11 mg/kg
"CC1(C)OC(=O)Nc2ccc(-c3coc(C#N)c3)cc21 [Compound 7, 4-(4,4-Dimethyl-2-oxo-1,4-dihydro-2H-benzo[d][1,3]oxazin-6-yl)-furan-2-carbonitrile]",inhibition at 3 mg/kg,"[1]; @ 3 mg/kg, read-out: Decidualization, percentage inhibition at the dose specified",75%
"Cc1cc(C#N)sc1-c1ccc2c(c1)C1(CCCCC1)OC(=O)N2 [Compound 10, 5-(1,2-Dihydro-2-oxospiro[4H-3,1-benzoxazine-4,1-cyclohexan]-6-yl)-4-methyl-2-thiophenecabonitrile]","Decidualization, percentage inhibition at the dose specified",[1]; @ 10 mg/kg,50% @
"CC1(C)OC(=O)Nc2ccc(-c3cccc(Br)c3)cc21 [Compound 13, 6-(3-Bromo-phenyl)-4,4-dimethyl-1,4-dihydro-benzo[d][1,3]-oxazin-2-one]",Decidualization IC50,[1],3 mg/kg
"N#Cc1cc(F)cc(-c2ccc3c(c2)C(C2CC2)(C2CC2)OC(=O)N3)c1 [Compound 15, 3-(4,4-Dicyclopropyl-2-oxo-1,4-dihydro-2H-benzo[d][1,3]oxazin-6-yl)-5-fluoro-benzonitrile]",Decidualization IC50,[1],3 mg/kg
"CC1(C)OC(=O)Nc2ccc(-c3csc(C#N)c3)cc21 [Compound 17, 4-(4,4-Dimethyl-2-oxo-1,4-dihidro-2H-benzo[d][1,3]oxazin-6-yl)-thiophene-2-carbonitrile]",Decidualization IC50,[1],2.3 mg/kg
"Cc1cc(C#N)sc1-c1ccc2c(c1)C(C)(C)OC(=O)N2 [Compound 18, 5-(4,4-Dimethyl-2-oxo-1,4-dihydro-2H-benzo[d][1,3]oxazin-6-yl)-4-methyl-thiophene-2-carbonitrile]",Decidualization IC50,[1],1.5 mg/kg
"CC1(C)OC(=O)Nc2ccc(-c3cc(F)cc(C#N)c3)cc21 [Compound 19, 3-(4,4-Dimethyl-2-oxo-1,4-dihydro-2H-benzo[d][1,3]oxazin-6-yl)-5-fluorobenzonitrile]",Decidualization IC50,[1],0.35 mg/kg
"CC1(C)OC(=O)Nc2ccc(-c3ccc(F)c(Cl)c3)cc21 [Compound 20, 6-(3-Chloro-4-fluoro-phenyl)-4,4-dimethyl-1,4-dihydro-benzo[d][1,3]oxazin-2-one]",Decidualization IC50,[1],1 mg/kg
"CC1(C)OC(=O)Nc2ccc(-c3ccc(C#N)c(F)c3)cc21 [Example 114, 6-(4-Cyano-3-fluoro-phenyl)-4,4-dimethyl-1,4-dihydrobenzo[d][1,3]-oxazin-2-one]",melting point,,272 to 275 °C
"CC1(C)OC(=O)Nc2ccc(-c3ccc(S(N)(=O)=O)s3)cc21 [Example 141, 5-(4,4Dimethyl-2-oxo-1,4-dihydro-2H-benzo[d][1,3]-oxazin-6-yl)-thiophene-2-sulfonamide]",melting point,,258 to 260 °C
C#C[C@]1(O)CC[C@H]2[C@@H]3CCC4=CC(=O)CC[C@@H]4[C@H]3CC[C@@]21CC [Levonorgestrel],"Estimated average EC50 (mg/kg, s.c.)",[1],0.10 mg/kg
same,"Estimated EC50 (mg/kg, s.c.)",[1]; individual studies,0.08 mg/kg and 0.12 mg/kg and 0.09 mg/kg (2×)
"CC(=O)O[C@]1(C(C)=O)CC[C@H]2[C@@H]3C[C@H](C)C4=CC(=O)CC[C@]4(C)[C@H]3CC[C@@]21C [MPA, medroxyprogesterone acetate]","Estimated EC50 (mg/kg, s.c.)",[1]; individual studies,0.42 mg/kg and 0.39 mg/kg (2×)
CC(=O)[C@H]1CC[C@H]2[C@@H]3CCC4=CC(=O)CC[C@]4(C)[C@H]3CC[C@]12C [Progesterone],"Estimated EC50 (mg/kg, s.c.)",[1]; individual studies,5.50 mg/kg
CC#C[C@]1(O)CC[C@H]2[C@@H]3CCC4=CC(=O)CCC4=C3[C@@H](c3ccc(N(C)C)cc3)C[C@@]21C [RU486],"Estimated IC50 (mg/kg, p.o.)","[1]; p.o., EC50 dose of progesterone, individual studies",0.21 mg/kg and 0.14 mg/kg
same,pIC50,T47D cells,10.80 and 10.74
